The record followed here is patent publication EP0321364A2, “Orally administrable cephalosporin derivatives, and the production and uses thereof” (ZAIDAN HOJIN BISEIBUTSU KAGAKU KENKYU KAI, priority 1987, dated 1989).

Series [1] deals with Klebsiella pneumoniae PCI602. Put plainly: MIC, serial dilution method in Müller-Hinton agar. The class given is cell-based. As to conditions: Klebsiella pneumoniae, PCI602, 18 h. The protocol:
(§1) The antibacterial activities of the cephalosporin compounds of the formula (I) according to this invention, specifically the final product compounds of the Examples 1 to 6 given hereinafter, were assayed in term of their minimum inhibitory concentrations (MIC; mcg/ml) against various test bacteria, as determined according to a standard serial dilution method in Müller-Hinton agar medium (a product of Difico company), where the incubation was made at 37°C for 18 hours. For the comparison purpose, the antibacterial spectrum of a known compound, Cefalexin (abbreviated as CEX) was also assayed in the same way as above.

Series [2] has as its system Escherichia coli K-12 C600. Nature of the series: MIC, serial dilution method in Müller-Hinton agar. As to conditions: K12C600; Escherichia coli K-12 C600; Müller-Hinton agar, 37°C, 18 hours; read-out: MIC. In kind it is cell-based. Here is the method: as §1
The next series deals with Proteus morganii IFO3848. Nature of the series: MIC, serial dilution method in Müller-Hinton agar. The class given is cell-based. The following applies: Morganella morganii. The protocol:
as §1

Series [3] relates to Klebsiella oxytosa GN10560. Nature of the series: MIC, serial dilution method in Müller-Hinton agar. The class given is cell-based. The following applies: Klebsiella oxytosa GN10560, cefuroximase producing strain, 37°C, 18 hours. The protocol: as §1
The test system of series [4] is Rms139/MI Pseudomonas aeruginosa. Put plainly: MIC, serial dilution method in Müller-Hinton agar. The following applies: 18 h. The class given is cell-based. Here is the method:
as §1

The test system of series [5] is Escherichia coli NIHJ-JS-2. Put plainly: MIC, serial dilution method in Müller-Hinton agar. In kind it is cell-based. As to conditions: NIHJJS2; Escherichia coli NIHJ-JS-2; Müller-Hinton agar, 37°C, 18 hours; read-out: MIC. The protocol: as §1
Series [6] has as its system Pseudomonas aeruginosa IFO3445. Nature of the series: MIC, serial dilution method in Müller-Hinton agar. The class given is cell-based. As to conditions: 37°C, 18 hours. The protocol:
as §1

Series [7] has as its system Salmonella enteritidis G14. Nature of the series: MIC, serial dilution method in Müller-Hinton agar. The class given is cell-based. As to conditions: Salmonella enterica. The protocol:
as §1

Series [8] relates to Rms213/Escherichia coli K-12 W3630. Put plainly: MIC, serial dilution method in Müller-Hinton agar. The following applies: 18 h. The class given is cell-based. Here is the method: as §1
Series [9] has as its system Salmonella paratyphi 1015. Nature of the series: MIC, serial dilution method in Müller-Hinton agar. The class given is cell-based. As to conditions: Salmonella enterica, 37°C, 18 hours. The protocol: as §1
Another series deals with Proteus rettgeri IFO3850. Nature of the series: MIC, serial dilution method in Müller-Hinton agar. In kind it is cell-based. The following applies: Providencia rettgeri. Here is the method:
as §1

The test system of series [10] is Salmonella schottmulleri 8006. Put plainly: MIC, serial dilution method in Müller-Hinton agar. The class given is cell-based. The following applies: 37°C, 18 hours. The protocol: as §1
For series [11], the system named is Rms823/Escherichia coli K-12 W3630. Put plainly: MIC, serial dilution method in Müller-Hinton agar. In kind it is cell-based. As to conditions: 18 h. The protocol:
as §1

Series [12] relates to Rms212/Escherichia coli K-12 W3630. Nature of the series: MIC, serial dilution method in Müller-Hinton agar. The class given is cell-based. As to conditions: 18 h. The protocol: as §1
In a further series the test system is Salmonella typhi 901. Put plainly: MIC, serial dilution method in Müller-Hinton agar. In kind it is cell-based. As to conditions: Salmonella enterica, 18 h. The protocol: as §1
The test system of series [13] is Micrococcus luteus ATCC9341. Put plainly: MIC, serial dilution method in Müller-Hinton agar. The following applies: 37°C, 18 hours. The class given is cell-based. Here is the method:
as §1

Series [14] has as its system Salmonella typhimurium IID971. Put plainly: MIC, serial dilution method in Müller-Hinton agar. As to conditions: Salmonella enterica, 18 h. The class given is cell-based. Here is the method:
as §1

In series [15] the test system is Rte16/Escherichia coli K-12 W3630. Nature of the series: MIC, serial dilution method in Müller-Hinton agar. In kind it is cell-based. As to conditions: 18 h. The protocol: as §1
Series [16] deals with Staphylococcus aureus FDA209P JC-1. Nature of the series: MIC, serial dilution method in Müller-Hinton agar. The class given is cell-based. As to conditions: Staphylococcus aureus FDA209P JC-1; Müller-Hinton agar, 37°C, 18 hours; read-out: MIC. Here is the method:
as §1

For series [17], the system named is Staphylococcus aureus Terajima. Nature of the series: MIC, serial dilution method in Müller-Hinton agar. The class given is cell-based. As to conditions: 37°C, 18 hours. The protocol: as §1
For another series, the system named is Proteus vulgaris OX-19. Put plainly: MIC, serial dilution method in Müller-Hinton agar. The class given is cell-based. As to conditions: OX19, 37°C, 18 hours. The protocol:
as §1

Series [18] has as its system Bacillus subtilis ATCC6633. Put plainly: MIC, serial dilution method in Müller-Hinton agar. The class given is cell-based. As to conditions: 37°C, 18 hours. Here is the method: as §1
The subject of series [19] is Staphylococcus aureus MS353. Put plainly: MIC, serial dilution method in Müller-Hinton agar. In kind it is cell-based. Here is the method:
as §1

Series [20] in a line: Test 1: urinary recovery after oral administration. In kind it is in vivo. As to conditions: mice (ICR-strain, female), 300 mcg per mouse, urine collected until 5 hours after administration, microbial assay, molar percentage. The protocol: To mice (ICR-strain, female, 4 weeks-aged) was orally administered a new cephalosporin compound according to this invention at a dosage of 300 mcg per mouse. Until the end of 5 hours after oral administration of the test cephalosporin compound, all the volumes of urine discharged by the treated mice were collected together, and the total amount of the test compound remaining in the collected urine was measured by a microbial assay method. The urinary recovery of the test compound was calculated in terms of percentage of the molar quantity of the test compound as recovered, against the molar quantity of the test compound as orally given.

In brackets after ≈: the same amount, converted by molar mass. Read-outs that look alike come from different tables or passages of the source.

Usually MIC stands for the least concentration at which growth counts as inhibited. Turning to `C/C=C\C1=C(C(=O)O)N2C(=O)C(NC(=O)[C@H](N)c3ccc(COC)c(OC)c3)[C@H]2SC1` (stereo partly drawn) [Example 6 Compound, 7-{(R)-2-amino-2-(3-methoxy-4-methoxymethylphenyl)acetamido}-3-{(Z)-1-propenyl}-3-cephem-4-carboxylic acid], the MIC in series [1] is 1.56 µg/mL (≈ 3.49 µM); in series [2] it was 6.25 µg/mL (≈ 14 µM); in the series on Proteus morganii IFO3848 (IFO3848, 18 h) it was 1.56 µg/mL (≈ 3.49 µM); in series [3] it was greater than 100 µg/mL; in series [4], greater than 100 µg/mL; in series [5], 25 µg/mL (≈ 55.9 µM). Also, the MIC in series [6] was greater than 100 µg/mL; in series [7] (Salmonella enteritidis G14, Müller-Hinton agar, 37°C, 18 hours, read-out: MIC), 6.25 µg/mL (≈ 14 µM); in series [8], 12.5 µg/mL (≈ 27.9 µM); in series [9], 3.13 µg/mL (≈ 6.99 µM); with Proteus rettgeri IFO3850 (IFO3850, 18 h), 12.5 µg/mL (≈ 27.9 µM); in series [10] it was 1.56 µg/mL (≈ 3.49 µM). The MIC in series [11] is greater than 100 µg/mL; in [12], 100 µg/mL (≈ 223 µM); against Salmonella typhi 901 it was 12.5 µg/mL (≈ 27.9 µM); in series [13], 0.025 µg/mL (≈ 0.0559 µM); in series [14] it was 12.5 µg/mL (≈ 27.9 µM); in series [15], 25 µg/mL (≈ 55.9 µM). The MIC in series [16] is 0.78 µg/mL (≈ 1.74 µM); in series [17], 0.1 µg/mL (≈ 0.223 µM); against Proteus vulgaris OX-19, 100 µg/mL (≈ 223 µM); in series [18], 0.05 µg/mL (≈ 0.112 µM); in [19] (Staphylococcus aureus, MS353, 18 h), 1.56 µg/mL (≈ 3.49 µM). The dose excreted in series [20] amounted to 32.9%.
As to `C=CC1=C(C(=O)O)N2C(=O)C(NC(=O)[C@H](N)c3ccc(CO)c(O)c3)[C@H]2SC1` (stereo partly drawn) [Example 3 Compound, 7-{(R)-2-amino-2-(3-hydroxy-4-hydroxymethylphenyl)acetamido}-3-vinyl-3-cephem-4-carboxylic acid], the MIC in series [1] was 3.13 µg/mL (≈ 7.72 µM); in series [2], 6.25 µg/mL (≈ 15.4 µM); in the series with Proteus morganii IFO3848 (Proteus morganii IFO3848, Müller-Hinton agar, 37°C, 18 hours, read-out: MIC), 50 µg/mL (≈ 123 µM); in series [3], greater than 100 µg/mL; in series [4], greater than 100 µg/mL; in series [5] it was 6.25 µg/mL (≈ 15.4 µM). In addition, the MIC was greater than 100 µg/mL in [6]; 3.13 µg/mL (≈ 7.72 µM) in series [7] (ENTERITIDIS, 18 h); 12.5 µg/mL (≈ 30.8 µM) in [8]; 3.13 µg/mL (≈ 7.72 µM) in series [9]; 50 µg/mL (≈ 123 µM) in the series with Proteus rettgeri IFO3850 (Proteus rettgeri IFO3850, Müller-Hinton agar, 37°C, 18 hours, read-out: MIC); 3.13 µg/mL (≈ 7.72 µM) in series [10]. The minimum inhibitory concentration (MIC) in [11] was greater than 100 µg/mL; in series [12], 12.5 µg/mL (≈ 30.8 µM); with Salmonella typhi 901, 3.13 µg/mL (≈ 7.72 µM); in [13], 0.2 µg/mL (≈ 0.493 µM); in [14], 3.13 µg/mL (≈ 7.72 µM); in [15] it was 12.5 µg/mL (≈ 30.8 µM). Also, the MIC is 1.56 µg/mL (≈ 3.85 µM) in [16]; 0.2 µg/mL (≈ 0.493 µM) in [17]; 25 µg/mL (≈ 61.7 µM) against Proteus vulgaris OX-19; 0.05 µg/mL (≈ 0.123 µM) in series [18]; 1.56 µg/mL (≈ 3.85 µM) in series [19] (Staphylococcus aureus MS353, Müller-Hinton agar, 37°C, 18 hours, read-out: MIC). This molecule showed a dose excreted in [20] of 65%.
